Data on 23 compounds can be found in US20220033397A1, “PHARMACEUTICAL COMPOUNDS AND THEIR USE AS INHIBITORS OF UBIQUITIN SPECIFIC PROTEASE 19 (USP19)” (ALMAC DISCOVERY LIMITED, priority 2018, published 2022).

The structures appear in SMILES notation.

The experiment addresses T1, Full-length USP19 (Homo sapiens, UniProt O94966).
T1 construct: Full-length USP19 was purchased from Boston Biochem (E-576); purchased Boston Biochem E-576
T1 sequence (O94966 1-1318): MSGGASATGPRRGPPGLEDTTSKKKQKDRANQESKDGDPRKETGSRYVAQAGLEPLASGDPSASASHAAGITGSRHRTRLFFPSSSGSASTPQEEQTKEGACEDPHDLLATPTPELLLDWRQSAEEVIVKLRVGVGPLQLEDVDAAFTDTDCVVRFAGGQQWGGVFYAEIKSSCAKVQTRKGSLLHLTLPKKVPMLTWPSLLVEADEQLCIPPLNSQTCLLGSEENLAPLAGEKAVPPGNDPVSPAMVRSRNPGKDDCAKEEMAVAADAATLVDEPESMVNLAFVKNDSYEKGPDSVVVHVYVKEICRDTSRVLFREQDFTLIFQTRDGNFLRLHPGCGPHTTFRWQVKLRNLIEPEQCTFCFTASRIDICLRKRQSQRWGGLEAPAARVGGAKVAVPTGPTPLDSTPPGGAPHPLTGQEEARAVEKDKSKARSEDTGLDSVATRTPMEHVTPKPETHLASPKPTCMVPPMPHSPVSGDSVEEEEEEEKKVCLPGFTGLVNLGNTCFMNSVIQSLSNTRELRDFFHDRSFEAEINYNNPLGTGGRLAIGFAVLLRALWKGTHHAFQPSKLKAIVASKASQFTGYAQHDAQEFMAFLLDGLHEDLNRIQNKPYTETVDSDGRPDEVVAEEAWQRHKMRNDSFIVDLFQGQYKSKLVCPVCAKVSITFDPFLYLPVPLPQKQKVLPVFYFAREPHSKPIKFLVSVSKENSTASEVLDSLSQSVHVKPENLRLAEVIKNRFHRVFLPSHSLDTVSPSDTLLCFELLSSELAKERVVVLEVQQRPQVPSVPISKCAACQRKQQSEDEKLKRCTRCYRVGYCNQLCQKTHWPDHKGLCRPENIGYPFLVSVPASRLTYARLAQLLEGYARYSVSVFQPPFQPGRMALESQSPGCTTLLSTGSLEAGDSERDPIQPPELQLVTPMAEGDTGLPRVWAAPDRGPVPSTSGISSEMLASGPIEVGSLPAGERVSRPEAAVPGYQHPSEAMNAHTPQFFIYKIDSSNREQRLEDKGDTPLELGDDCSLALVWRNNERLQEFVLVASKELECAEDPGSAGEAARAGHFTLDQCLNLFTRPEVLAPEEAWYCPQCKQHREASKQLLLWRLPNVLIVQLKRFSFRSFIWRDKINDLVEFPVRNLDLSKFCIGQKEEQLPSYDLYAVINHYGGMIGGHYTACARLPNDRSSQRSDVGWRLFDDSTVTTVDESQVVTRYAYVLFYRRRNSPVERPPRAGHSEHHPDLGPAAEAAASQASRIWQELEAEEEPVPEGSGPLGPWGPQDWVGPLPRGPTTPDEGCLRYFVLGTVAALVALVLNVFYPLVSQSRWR
Description: USP19 fluorescence polarisation (FP) homogeneous assay with Ubiquitin-Lys-TAMRA substrate. Format: biochemical. As to conditions: 2.5 nM USP19, 30 min pre-incubation, average of at least two duplicate experiments. The procedure, abridged:
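Full-length USP19 preincubated 30 min at RT with inhibitor (200 μM to 2 μM series, 8–18 points) before adding 500 nM Ubiquitin-Lys-TAMRA substrate.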

On to `Cn1cc(-c2cc(=O)n(C[C@]3(O)CCN(C(=O)N4CCNC[C@H]4c4ccccc4)CC34CCCC4)cn2)cn1` [Example 291, 3-(((S)-10-Hydroxy-7-((R)-2-phenylpiperazine-1-carbonyl)-7-azaspiro[4.5]decan-10-yl)methyl)-6-(1-methyl-1H-pyrazol-4-yl)pyrimidin-4(3H)-one], for which the IC50 was under 500 nM.

In the case of `O=C(N1CC[C@@](O)(Cn2cnc(C3CC3)cc2=O)C2(CCCC2)C1)N1CCNC[C@H]1c1ccccc1` [Example 292, 6-Cyclopropyl-3-(((S)-10-hydroxy-7-((R)-2-phenylpiperazine-1-carbonyl)-7-azaspiro[4.5]decan-10-yl)methyl)pyrimidin-4(3H)-one], the IC50 was under 500 nM.

In the case of `O=C(N1CC[C@@](O)(Cn2cnc(-c3ccccc3)cc2=O)C2(CCCC2)C1)N1CCOC[C@H]1c1nc2ccccc2[nH]1` [Example 293, 3-(((S)-7-((R)-3-(1H-Benzo[d]imidazol-2-yl)morpholine-4-carbonyl)-10-hydroxy-7-azaspiro[4.5]decan-10-yl)methyl)-6-phenylpyrimidin-4(3H)-one], the half-inhibitory concentration (IC50) lay within 50000 to 250000 nM.

Take `O=C(N[C@H](c1ccccc1)C(F)(F)F)N1CC[C@@](O)(Cn2cnc(-c3ccccc3)cc2=O)C2(CCCC2)C1` [Example 294, (S)-10-Hydroxy-10-((6-oxo-4-phenylpyrimidin-1(6H)-yl)methyl)-N—((R)-2,2,2-trifluoro-1-phenylethyl)-7-azaspiro[4.5]decane-7-carboxamide]: the IC50 was under 500 nM.

For the compound `O=C(N1CCC(O)(Cn2cnc(-c3ccccc3)cc2=O)CC1)N1CCOC[C@H]1c1ccccc1` [Example 295, (R)-3-((4-Hydroxy-1-(3-phenylmorpholine-4-carbonyl)piperidin-4-yl)methyl)-6-phenylpyrimidin-4(3H)-one], the IC50 fell in the range of 500 to 5000 nM.

As for `O=C(N1CCC(O)(Cn2cnc(-c3ccccc3)cc2=O)C2(CCCCC2)C1)N1CCOC[C@H]1c1ccccc1` (stereo partly drawn) [Example 296, 3-((5-Hydroxy-2-((R)-3-phenylmorpholine-4-carbonyl)-2-azaspiro[5.5]undecan-5-yl)methyl)-6-phenylpyrimidin-4(3H)-one], the 50% inhibitory concentration (IC50) is under 500 nM.

Turning to `O=C(N1CCC(O)(Cn2cnc(-c3ccccc3)cc2=O)CC1)N1CCNC[C@H]1c1ccccc1` [Example 297, (R)-3-((4-Hydroxy-1-(2-phenylpiperazine-1-carbonyl)piperidin-4-yl)methyl)-6-phenylpyrimidin-4(3H)-one], the IC50 was under 500 nM.

Take `O=C(N1CCC(O)(Cn2cnc(-c3ccccc3)cc2=O)C2(CCCCC2)C1)N1CCNC[C@H]1c1ccccc1` (stereo partly drawn) [Example 298, 3-((5-Hydroxy-2-((R)-2-phenylpiperazine-1-carbonyl)-2-azaspiro[5.5]undecan-5-yl)methyl)-6-phenylpyrimidin-4(3H)-one]: the IC50 is under 500 nM.

Take `O=C(N1CC[C@@](O)(Cn2cnc(-c3ccccc3)cc2=O)C2(CCCC2)C1)N1CCCN1c1ccccc1` [Example 299, (S)-3-((10-Hydroxy-7-(2-phenylpyrazolidine-1-carbonyl)-7-azaspiro[4.5]decan-10-yl)methyl)-6-phenylpyrimidin-4(3H)-one]: the 50% inhibitory concentration (IC50) was 500 to 5000 nM.

For `Cc1cc(=O)n(C[C@]2(O)CCN(C(=O)N3CCNC[C@H]3c3ccccc3)CC23CCCC3)cn1` [Example 300, 3-(((S)-10-Hydroxy-7-((R)-2-phenylpiperazine-1-carbonyl)-7-azaspiro[4.5]decan-10-yl)methyl)-6-methylpyrimidin-4(3H)-one], the half-maximal inhibitory concentration (IC50) was under 500 nM.

On to `O=C(NCc1cccc(F)c1F)N1CC[C@@](O)(Cn2cnc(-c3ccccc3)cc2=O)C2(CCCC2)C1` [Example 301, (S)—N-(2,3-Difluorobenzyl)-10-hydroxy-10-((6-oxo-4-phenylpyrimidin-1(6H)-yl)methyl)-7-azaspiro[4.5]decane-7-carboxamide], for which the IC50 was under 500 nM.

Regarding `O=C(NCc1c(F)cccc1F)N1CC[C@@](O)(Cn2cnc(-c3ccccc3)cc2=O)C2(CCCC2)C1` [Example 302, (S)—N-(2,6-Difluorobenzyl)-10-hydroxy-10-((6-oxo-4-phenylpyrimidin-1(6H)-yl)methyl)-7-azaspiro[4.5]decane-7-carboxamide], the IC50 is under 500 nM.

`O=C(NCc1ccc(F)cc1F)N1CC[C@@](O)(Cn2cnc(-c3ccccc3)cc2=O)C2(CCCC2)C1` [Example 303, (S)—N-(2,4-Difluorobenzyl)-10-hydroxy-10-((6-oxo-4-phenylpyrimidin-1(6H)-yl)methyl)-7-azaspiro[4.5]decane-7-carboxamide]: the IC50 was under 500 nM.

For `O=C(NCc1ccc(F)c(F)c1)N1CC[C@@](O)(Cn2cnc(-c3ccccc3)cc2=O)C2(CCCC2)C1` [Example 304, (S)—N-(3,4-Difluorobenzyl)-10-hydroxy-10-((6-oxo-4-phenylpyrimidin-1(6H)-yl)methyl)-7-azaspiro[4.5]decane-7-carboxamide], the IC50 was under 500 nM.

On to `O=C(N1CCC(O)(Cn2cnc(-c3ccccc3)cc2=O)C2(CCC2)C1)N1CCOC[C@H]1c1ccccc1` (stereo partly drawn) [Example 305, 3-((9-Hydroxy-6-((R)-3-phenylmorpholine-4-carbonyl)-6-azaspiro[3.5]nonan-9-yl)methyl)-6-phenylpyrimidin-4(3H)-one], for which the IC50 was under 500 nM.

Take `O=C(N1CCC(O)(Cn2cnc(-c3ccccc3)cc2=O)C2(CCC2)C1)N1CCNC[C@H]1c1ccccc1` (stereo partly drawn) [Example 306, 3-((9-Hydroxy-6-((R)-2-phenylpiperazine-1-carbonyl)-6-azaspiro[3.5]nonan-9-yl)methyl)-6-phenylpyrimidin-4(3H)-one]: the IC50 is under 500 nM.

For the compound `O=C(NCC1CC(F)(F)C1)N1CC[C@@](O)(Cn2cnc(-c3ccccc3)cc2=O)C2(CCCC2)C1` [Example 307, (S)—N-((3,3-Difluorocyclobutyl)methyl)-10-hydroxy-10-((6-oxo-4-phenylpyrimidin-1(6H)-yl)methyl)-7-azaspiro[4.5]decane-7-carboxamide], the IC50 is under 500 nM.

Regarding `O=C(NC(C(F)(F)F)C(F)(F)F)N1CC[C@@](O)(Cn2cnc(-c3ccccc3)cc2=O)C2(CCCC2)C1` [Example 308, (S)—N-(1,1,1,3,3,3-Hexafluoropropan-2-yl)-10-hydroxy-10-((6-oxo-4-phenylpyrimidin-1(6H)-yl)methyl)-7-azaspiro[4.5]decane-7-carboxamide], the concentration for half-maximal inhibition (IC50) lay in the range of 500 to 5000 nM.

As to `O=C(N[C@H](c1ccccc1)C(F)(F)F)N1CC[C@@](O)(Cn2ccc(-c3ccccc3)cc2=O)C2(CCCC2)C1` [Example 309, (S)-10-Hydroxy-10-((2-oxo-4-phenylpyridin-1(2H)-yl)methyl)-N—((R)-2,2,2-trifluoro-1-phenylethyl)-7-azaspiro[4.5]decane-7-carboxamide], the IC50 is under 500 nM.

As to `CC1(C)CN(C(=O)N2CCOC[C@H]2c2ccccc2)CC[C@@]1(O)Cn1cnc(-c2ccccc2)cc1=O` [Example 310, 3-(((S)-4-Hydroxy-3,3-dimethyl-1-((R)-3-phenylmorpholine-4-carbonyl)piperidin-4-yl)methyl)-6-phenylpyrimidin-4(3H)-one], the IC50 is under 500 nM.

Turning to `O=C(NCC1(F)CC1)N1CC[C@@](O)(Cn2cnc(-c3ccccc3)cc2=O)C2(CCCC2)C1` [Example 311, (S)—N-((1-Fluorocyclopropyl)methyl)-10-hydroxy-10-((6-oxo-4-phenylpyrimidin-1(6H)-yl)methyl)-7-azaspiro[4.5]decane-7-carboxamide], the IC50 is 500 to 5000 nM.

As for `O=C(NCC1(F)CCC1)N1CC[C@@](O)(Cn2cnc(-c3ccccc3)cc2=O)C2(CCCC2)C1` [Example 312, (S)—N-((1-Fluorocyclobutyl)methyl)-10-hydroxy-10-((6-oxo-4-phenylpyrimidin-1(6H)-yl)methyl)-7-azaspiro[4.5]decane-7-carboxamide], the half-maximal inhibitory concentration (IC50) lay within 5000 to 50000 nM.

Regarding `CN(CC1CC1)C(=O)N1CC[C@@](O)(Cn2cnc(-c3ccccc3)cc2=O)C2(CCCC2)C1` [Example 313, (S)—N-(Cyclopropylmethyl)-10-hydroxy-N-methyl-10-((6-oxo-4-phenylpyrimidin-1(6H)-yl)methyl)-7-azaspiro[4.5]decane-7-carboxamide], the half-inhibitory concentration (IC50) was in the range of 500 to 5000 nM.
